We go through one substance from patent publication US6720324B2, “Selective melanin concentrating hormone-1 (MCH1) receptor antagonists and uses thereof” (Synaptic Pharmaceutical Corporation, priority 2000, dated 2004).

The target of one test is T1, human NPY5 (Homo sapiens, UniProt Q15761).
T1 construct: expressed in transfected cells
T1 sequence (Q15761 1-445): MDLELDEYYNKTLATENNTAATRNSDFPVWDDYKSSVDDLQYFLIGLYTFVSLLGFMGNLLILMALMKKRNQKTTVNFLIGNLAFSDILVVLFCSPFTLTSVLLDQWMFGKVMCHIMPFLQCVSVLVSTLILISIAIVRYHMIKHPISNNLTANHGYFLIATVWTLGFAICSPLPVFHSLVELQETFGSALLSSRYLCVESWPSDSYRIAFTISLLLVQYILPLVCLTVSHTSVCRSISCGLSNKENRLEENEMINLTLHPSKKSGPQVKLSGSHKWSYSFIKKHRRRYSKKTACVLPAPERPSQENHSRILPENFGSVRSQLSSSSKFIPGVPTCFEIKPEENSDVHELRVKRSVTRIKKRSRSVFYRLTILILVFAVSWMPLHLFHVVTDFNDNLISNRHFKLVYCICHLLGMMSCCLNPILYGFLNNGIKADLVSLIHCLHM
The experiment in a line: Radioligand binding assay, cloned receptor. The settings on record: read-out: hNPY5 Ki. How it is done: (§1) For binding assays, pellets of transfected cells are suspended in ice-cold buffer (20 mM Tris.HCl, 5 mM EDTA, pH 7.4) and homogenized by sonication for 7 sec. The cell lysates are centrifuged at 200×g for 5 min at 4° C. The supernatants are then centrifuged at 40,000×g for 20 min at 4° C. The resulting pellets are washed once in the homogenization buffer and suspended in binding buffer (see methods for radioligand binding). Protein concentrations are determined by the method of Bradford (1976) using bovine serum albumin as the standard. Binding assays are usually performed immediately, however it is possible to prepare membranes in batch and store frozen in liquid nitrogen for future use.
(§2) The methods to obtain the cDNA of the human NPY1, NPY5, GALR1, GALR2, and GALR3 and rat 5-HT2C receptors, express said receptors in heterologous systems, and carry out assays to determine binding affinity are described in the following publications and above: human NPY1 (Larhammar et al., 1992), human NPY5 (U.S. Pat. No. 5,602,024, the disclosure of which is hereby incorporated by reference in its entirety into this application), human Gal1 (Habert-Ortoli et al., 1994), human Gal2 (Smith et al., 1997), human Gal3 (Smith et al., 1998), and rat 5-HT2C (Julius et al., 1988).

A further test deals with T2, human GALR2 (Homo sapiens, UniProt O43603).
T2 construct: expressed in transfected cells
T2 sequence (O43603 1-387): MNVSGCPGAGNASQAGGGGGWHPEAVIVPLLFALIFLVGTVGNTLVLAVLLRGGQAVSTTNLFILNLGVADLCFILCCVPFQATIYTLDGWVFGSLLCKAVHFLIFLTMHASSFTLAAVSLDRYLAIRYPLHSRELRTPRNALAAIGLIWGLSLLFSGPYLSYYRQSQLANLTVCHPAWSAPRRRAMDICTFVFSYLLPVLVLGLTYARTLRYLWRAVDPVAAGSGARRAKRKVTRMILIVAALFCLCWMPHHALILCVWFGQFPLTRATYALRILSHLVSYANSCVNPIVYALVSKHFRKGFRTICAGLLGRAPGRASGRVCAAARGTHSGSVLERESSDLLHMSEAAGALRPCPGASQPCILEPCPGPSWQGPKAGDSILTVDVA
The experiment in a line: Radioligand binding assay, cloned receptor. The settings on record: read-out: hGALR2 Ki. The protocol: as §1, §2

A further test deals with human MCH1 receptor (Homo sapiens, UniProt Q99705). The experiment in a line: Functional assay: intracellular calcium mobilization (antagonist potency Kb). Also on record: expressed in transfected cells; host or cells: COS-7 cells, transient, DEAE-dextran, plasmid pEXJ.HR-TL231 (ATCC 203197). Type of test: cell-based. The protocol:
Intracellular calcium mobilization assays for the MCH1 receptor were carried out using plasmid pEXJ.HR-TL231 (ATCC Accession No. 203197). COS-7 cells were transiently transfected with DNA encoding the MCH1 receptor utilizing the DEAE-dextran method as described above. The intracellular free calcium concentration was measured by fluorescent imaging using the calcium sensitive fluorscent dye Fluo-3. COS-7 cells expressing the human MCH1 receptor were seeded onto sterile 96 well plates, washed with Hank's balanced salt solution (HBSS), containing 20 mM HEPES, 2.5 mM probenecid, and 0.1% BSA, and loaded with the same buffer containing 3.8 μM Fluo-3 for 1 hour at 37° C. After washing with HBSS to remove the fluo-3 solution, cells were equilibrated for 10 minutes.

Like-named read-outs stand apart in the source and are kept apart here. Bounds are passed on as bounds.

Chain of human MCH1 receptor (Q99705 whole entry): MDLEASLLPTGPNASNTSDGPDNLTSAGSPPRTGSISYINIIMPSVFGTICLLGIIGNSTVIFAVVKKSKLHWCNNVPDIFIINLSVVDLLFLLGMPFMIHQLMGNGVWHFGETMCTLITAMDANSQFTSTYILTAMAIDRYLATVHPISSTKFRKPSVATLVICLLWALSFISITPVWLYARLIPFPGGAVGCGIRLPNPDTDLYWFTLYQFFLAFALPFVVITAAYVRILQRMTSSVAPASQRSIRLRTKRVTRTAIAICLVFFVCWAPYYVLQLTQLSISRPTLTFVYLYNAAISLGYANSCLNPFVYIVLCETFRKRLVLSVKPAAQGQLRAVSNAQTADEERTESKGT

Broadly, the Ki is the dissociation constant of the complex between target and ligand, obtained from inhibition or displacement. One may read the Kb as the affinity of an antagonist, worked out from how it opposes an agonist. On to “2-(3,4-DIFLUOROPHENYL)4,5-DIHYDROIMIDAZOLE-1-CARBOXYLIC ACID {3-[4-PHENYL-4-(4-BROMO-5-METHYLTHIOPNEN-2-YL)]PROPYL}-AMIDE [Example 19]”, for which the Ki at human NPY5 (Table 2), on human NPY5 (Table 3), on human GALR2 (Table 2) and on human GALR2 (Table 3) was greater than 50000 nM each time. The antagonist dissociation constant (Kb) at human MCH1 receptor (Table 1, cloned human MCH1 receptor, functional assay, read-out: Kb (nM) hMCH1) was found to be 7 nM; on human MCH1 receptor (Table 2, antagonist potency at the human MCH1 receptor, read-out: hMCH1 Kb), 7 nM; on human MCH1 receptor (Table 3, antagonist potency at the human MCH1 receptor, read-out: hMCH1 Kb) it was 7 nM.
